Measured values taken from patent US20110045101A1, “FUNGICIDAL SUBSTITUTED AZOLES” (E.I. Du Pont De Nemours and Company, priority 2009, published 2011).
Marks after values point to notes of the source that are not given here.

Columns and labels:
Type in all cases: in vivo
Botrytis cinerea = experiment: Test C: tomato Botrytis on tomato seedlings, sprayed the day before inoculation, visual disease rating; conditions: 100 = 100% disease control; for pest or weed control at 200 ppm: Botrytis cinerea, 120 h
Procedure, shortened: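 Each compound is first taken up in acetone at 3% of the final volume and then brought to the desired ppm in a 50:50 acetone–water mix with 250 ppm surfactant (polyhydric alcohol esters). Tomato seedlings receive the suspension to run-off, normally at 200 ppm, occasionally 40 ppm.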

Septoria nodorum = experiment: Test F: wheat glume blotch on wheat seedlings, sprayed the day before inoculation, visual disease rating; conditions: 100 = 100% disease control; for pest or weed control at 200 ppm: Parastagonospora nodorum, 264 h
Procedure, shortened: (§1)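 Test rate was 200 ppm, sprayed to run-off and equal to 500 g/ha, or 40 ppm where marked. The compound was first taken up in acetone at 3% of final volume and suspended in acetone/purified water (50/50) containing 250 ppm Trem® 014.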

[1] = system: Puccinia recondita f. sp. tritici; experiment: Test I: wheat leaf rust on wheat seedlings, sprayed the day before inoculation, visual disease rating; conditions: 100 = 100% disease control; for pest or weed control at 200 ppm: Puccinia recondita, 168 h
Procedure, shortened: as §1

Alternaria solani = experiment: Test D: tomato early blight, sprayed the day before inoculation, visual disease rating; conditions: 100 = 100% disease control; for pest or weed control at 200 ppm: Alternaria solani, 168 h
Procedure, shortened: as §1

[2] = system: Erysiphe graminis f. sp. tritici; experiment: Test J: wheat powdery mildew on wheat seedlings, sprayed the day before inoculation, visual disease rating; conditions: 100 = 100% disease control; for pest or weed control at 200 ppm: Blumeria graminis, 168 h
Procedure, shortened: as §1

[3] = system: Puccinia recondita f. sp. tritici; experiment: Test H: wheat leaf rust, test suspension sprayed after inoculation of wheat seedlings, visual disease rating; conditions: 100 = 100% disease control; for pest or weed control at 200 ppm: Puccinia recondita, 96 h
Procedure, shortened: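 Wheat seedlings inoculated with P. recondita spores, held 24 h saturated at 20 °C, then 2 days in growth chamber at 20 °C; compound suspension (acetone/water with Trem 014) sprayed to run-off afterwards. Rated visually; 200 ppm (≈500 g/ha) unless marked *, which denotes 40 ppm.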

Septoria tritici = experiment: Test G: wheat leaf blotch on wheat seedlings, sprayed the day before inoculation, visual disease rating; conditions: 100 = 100% disease control; for pest or weed control at 200 ppm: Zymoseptoria tritici, 504 h
Procedure, shortened: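 Visual disease ratings taken 19 days after transfer to a 20° C growth chamber, following 48 h in saturated atmosphere at 24° C. Seedlings had been sprayed to run-off one day before spore inoculation. Dose 200 ppm, or 40 ppm where starred.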

[4] = 200 ppm, 0 = no control relative to controls
[5] = 40 ppm (marked *), 0 = no control

| Structure (SMILES) | Test C disease control rating (Botrytis cinerea; [4]) [%] | Test F disease control rating (Septoria nodorum; [4]) [%] | Test I disease control rating [1, 4] [%] | Test D disease control rating (Alternaria solani; [4]) [%] | Test J disease control rating [2, 4] [%] | Test H disease control rating [3, 4] [%] | Test G disease control rating (Septoria tritici; [4]) [%] | also measured |
| --- | --- | --- | --- | --- | --- | --- | --- | --- |
| COc1cc(F)c(-c2c(Cl)nc(C)n2-c2cccc(OC(F)(F)F)c2)c(F)c1 [compound 589] | 100 | 98 | 100 | 99 | 100 | 97 | 98 | – |
| Cc1nc(Cl)n(-c2c(F)cccc2F)c1-c1ccc(Cl)cc1 [compound 466] | – | – | – | – | – | – | – | Test C disease control rating (Botrytis cinerea; 40 ppm (marked *)): 99* %; Test F disease control rating (Septoria nodorum; 40 ppm (marked *)): 0* %; Test I disease control rating ([1]; 40 ppm (marked *)): 93* %; Test D disease control rating (Alternaria solani; 40 ppm (marked *)): 100* %; Test J disease control rating ([2]; 40 ppm (marked *)): 100* %; Test H disease control rating ([3]; 40 ppm (marked *)): 0* %; Test G disease control rating (Septoria tritici; 40 ppm (marked *)): 82* % |
| COc1cc(F)c(-c2c(Cl)nc(Cl)n2-c2ccc(Cl)nc2)c(F)c1 [compound 406] | 100 | 100 | 100 | 100 | 100 | 100 | 93 | – |
| N#Cc1ccc(F)c(-c2c(CCl)nc(Cl)n2-c2ccc(Cl)nc2)c1F [compound 717] | 100 | 0 | 96 | 100 | 79 | 0 | 99 | – |
| COC(=O)Cc1nc(Br)c(-c2c(F)cccc2F)n1-c1ccc(Cl)cc1 [Compound 544, methyl 4-bromo-1-(4-chlorophenyl)-5-(2,6-difluorophenyl)-1H-imidazole-2-acetate] | – | – | – | – | – | – | – | pest or weed control at 200 ppm (Botrytis cinerea; [4]): 84%; pest or weed control at 200 ppm (Septoria nodorum; [4]): 0%; pest or weed control at 200 ppm [1, 4]: 91%; pest or weed control at 200 ppm (Alternaria solani; [4]): 98%; pest or weed control at 200 ppm [2, 4]: 86%; pest or weed control at 200 ppm [3, 4]: 9%; pest or weed control at 200 ppm (Septoria tritici; [4]): 82% |
| Cc1ccc(-n2c(Cl)nc(Br)c2-c2c(F)ccc(F)c2F)cc1 [compound 465] | – | – | – | – | – | – | – | Test C disease control rating (Botrytis cinerea; 40 ppm (marked *)): 100* %; Test F disease control rating (Septoria nodorum; 40 ppm (marked *)): 0* %; Test I disease control rating ([1]; 40 ppm (marked *)): 99* %; Test D disease control rating (Alternaria solani; 40 ppm (marked *)): 99* %; Test J disease control rating ([2]; 40 ppm (marked *)): 99* %; Test H disease control rating ([3]; 40 ppm (marked *)): 0* %; Test G disease control rating (Septoria tritici; 40 ppm (marked *)): 88* % |
| COc1ccc(F)c(-c2c(Cl)nc(Br)n2-c2ccc(Br)cc2)c1F [compound 563] | 100 | 100 | 94 | 100 | 100 | 0 | 100 | – |
| Cc1nc(Cl)n(-c2ccc(Cl)c(F)c2)c1-c1cccnc1Cl [compound 360] | 100 | 0 | 99 | 99 | 98 | 9 | 95 | – |
| COc1cc(F)c(-c2c(Cl)nc(Cl)n2-c2cccnc2C)c(F)c1 [compound 675] | 100 | 99 | 100 | 100 | 100 | 100 | 98 | – |
| Fc1ccc(-n2cnc(Br)c2-c2c(F)ccc(F)c2Cl)cc1 [compound 508] | 100 | 0 | 99 | 100 | 99 | 78 | 94 | – |
| COc1ccc(F)c(-c2c(Cl)nc(C)n2-c2cccc(F)c2)c1F [compound 315] | 99 | 100 | 100 | 100 | 100 | 86 | 95 | – |
| Cn1c(-c2cnc(Cl)n2-c2ccc(Cl)cc2)nc(Cl)c1Br [compound 394] | – | – | – | – | – | – | – | Test C disease control rating (Botrytis cinerea; [5]): 3* %; Test F disease control rating (Septoria nodorum; [5]): 0* %; Test I disease control rating [1, 5]: 45* %; Test D disease control rating (Alternaria solani; [5]): 0* %; Test J disease control rating [2, 5]: 0* %; Test H disease control rating [3, 5]: 0* %; Test G disease control rating (Septoria tritici; [5]): 28* % |
| COc1ccc(F)c(-c2c(Br)nc(Br)n2-c2ccc(F)cc2)c1F [Compound 504, 2,4-dibromo-5-(2,6-difluoro-3-methoxyphenyl)-1-(4-fluorophenyl)-1H-imidazole] | – | – | – | – | – | – | – | pest or weed control at 200 ppm (Botrytis cinerea; [4]): 99%; pest or weed control at 200 ppm (Septoria nodorum; [4]): 100%; pest or weed control at 200 ppm [1, 4]: 99%; pest or weed control at 200 ppm (Alternaria solani; [4]): 100%; pest or weed control at 200 ppm [2, 4]: 100%; pest or weed control at 200 ppm [3, 4]: 0%; pest or weed control at 200 ppm (Septoria tritici; [4]): 97% |
| COc1cc(F)c(-c2c(Cl)nc(Cl)n2-c2cccc(OC(F)(F)F)c2)c(F)c1 [compound 567] | 99 | 0 | 99 | 67 | 100 | 7 | 94 | – |
| Cc1nc(Cl)n(-c2ccc(Cl)c(F)c2)c1-c1cncc(Br)c1 [compound 356] | 98 | 0 | 0 | 57 | 0 | 17 | 72 | – |
| COc1ccc(F)c(-c2c(Cl)nc(Br)n2-c2ccc(C)c(F)c2)c1F [compound 551] | 100 | 96 | 100 | 100 | 100 | 0 | 98 | – |
| Fc1cc(-n2cnc(Cl)c2-c2c(F)cncc2F)ccc1Cl [compound 594] | 100 | 0 | 99 | 99 | 100 | 78 | 94 | – |
| COc1ccc(F)c(-c2c(Cl)nc(Br)n2-c2ccc(Cl)c(C)c2)c1F [compound 401] | 99 | 0 | 73 | 100 | 100 | 0 | 96 | – |
| Cc1nc(Cl)n(-c2ccc(Cl)c(F)c2)c1-c1ccnc(F)c1 [compound 323] | 100 | 0 | 100 | 99 | 99 | 70 | 100 | – |
| Fc1cc(F)c(-c2c(Cl)ncn2-c2cccc(OC(F)F)c2)c(F)c1 [compound 584] | 99 | 0 | 100 | 99 | 99 | 0 | 98 | – |
